# Key:
# Assay type in all cases: cell-based
# [1] = system: KRAS G12C mutant cancer cell line H358; assay: Colony formation matrix (Assay Method A), Example 4; conditions: compound (A) combined with RMC4550, 10 days, FIG. 4
# Description: (§1) • KRAS mutant lung and colorectal cancer cells: • Lung: H358 (G12C) (ATCC No: CRL-5807) • H2122 (G12C) (ATCC No: CRL-5985) • Colon:DLD1 (G13D) (ATCC No: CCL-221) • HCT 116 (G13D) (ATCC No: CCL-247)
# (§2) All cell lines were cultured in RPMI 1640 medium (Gibco) supplemented with 10% fetal bovine serum, 1% glutamine and penicillin-streptomycin (Gibco) at 37° C. and 5% CO2. Mycoplasma contamination was excluded via a PCR-based method.
# (§3) Cell lines were cultured and seeded into 24-well plates. After 24 h incubation, drugs were added using the HP D300 Digital Dispenser. Medium and drugs were refreshed twice a week for 10-14 days. After this, cells were fixed with 4% formaldehyde in PBS and stained with 0.1% crystal violet in water. The quantification of the colony formation matrixes (crystal violet staining per well) was assessed using ImageJ software.
# According to Assay Method A H358 cells were treated with compound (A), RMC4550 or their combination at the indicated concentrations (cf. FIG. 4). Drugs were refreshed twice a week. The cells were fixed and stained after 10 days.
# Lung Cancer Cells [2] = assay: IncuCyte Caspase 3/7 apoptosis assay (Assay Method C); conditions: compound (A) in combination with Trametinib, RMC4550 or AMG510; first 72 hours; FIG. 5B
# Description: as §2
# For IncuCyte proliferation assays and Caspase 3/7 assays, cells were seeded in 96-well plates. After 24 h incubation, drugs and the IncuCyte® Caspase-3/7 green apoptosis assays reagent (Essen Bioscience 4440) were added using the HP D300 Digital Dispenser and the plates were placed in the IncuCyte®. Culture media and drugs were refreshed twice a week for 10 days. Cells were imaged every 4 hours in the IncuCyte ZOOM (Essen Bioscience). Phase-contrast images were collected and analyzed to detect cell proliferation based on cell confluence. Apoptosis was measured based on green fluorescent staining of apoptotic cells using the IncuCyte® Caspase-3/7 green apoptosis assay reagent (Essen Bioscience 4440).
# According to assay method C cells were treated with compound (A) as component a) and RMC4550, AMG510, or Trametinib as component b) or combinations of component a) and either one of component b) at the indicated concentrations. Additionally, during the first treatment, the IncuCyte® Caspase-3/7 green apoptosis assay reagent was added to measure apoptosis for the first 72 hours. […] Confluence (left) and Caspase 3/7 activity was measured by the IncuCyte®. […]
# [3] = system: KRAS mutant lung and colorectal cancer cells (H358, H2122, DLD1, HCT 116); assay: Colony formation matrix (Assay Method A)
# Description: as §1, §2, §3
# According to Assay Method A cells (H358, H2122, DLD1, HCT 116) were treated with compound (A), Trametinib or their combination at the indicated concentrations (cf. FIG. 1). Drugs were refreshed twice a week. The cells were fixed and stained after 10 days.
# According to Assay Method A cells (H358, DLD1, HCT 116) were treated with compound (A), SCH772984 or their combination at the indicated concentrations (cf. FIG. 2). Drugs were refreshed twice a week. The cells were fixed and stained after 10 days.
# [4] = system: KRASG12C mutant lung cancer cells (H358, H2122); assay: Colony formation matrix (Assay Method A), Example 3; conditions: 10 days, FIG. 3
# Description: as §1, §2, §3
# According to Assay Method A cells (H358, H2122) were treated with compound (A), AMG510 or their combination at the indicated concentrations (cf. FIG. 3). Drugs were refreshed twice a week. The cells were fixed and stained after 10 days.
# Lung Cancer Cells [5] = assay: IncuCyte proliferation assay (Assay Method C), confluence
# Description: as §2
# Drugs were refreshed twice a week.
smiles,measurement,setting,value
"CCCS(=O)(=O)Nc1c(F)ccc(C(=O)c2c[nH]c3ncc(-c4cnc(C5CC5)nc4)cc23)c1F [compound (A), N-(3-(5-(2-cyclopropyl-pyrimidin-5-yl)-1H-pyrrolo[2,3-b]pyridine-3-carbonyl)-2,6-difluorophenyl)-propane-1-sulfonamide]",synergy with SHP2 inhibition in colony formation matrix,[1],Synergizes
same,apoptosis (Caspase 3/7 activity),Lung Cancer Cells [2],Induces Apoptosis
same,"synergy with MEK, ERK, KRAS and SHP2 inhibition, overall conclusion","[3]; compound (A) combined with MEK, ERK, KRAS or SHP2 inhibitor, all obtained results",strongly synergizes
same,synergy with ERK inhibition in colony formation matrix,"[3]; compound (A) combined with SCH772984, H358, DLD1, HCT 116, 10 days, FIG. 2",Synergizes
same,"toxicity in colony formation matrix, single drug","[3]; single drug, KRAS mutant cancer cells (H358, H2122, DLD1, HCT 116), fixed and stained after 10 days, FIG. 1",did not show sensitivity
same,toxicity compared to the single agent effect of AMG510,"[4]; addition of compound (A) to AMG510, KRAS G12C mutants H358, H2122",strongly increased the toxicity
same,synergy with AMG510 in colony formation matrix,"[4]; compound (A) combined with AMG510, H358, H2122",strong synergy
same,cell proliferation (confluence),"Lung Cancer Cells [5]; compound (A) in combination with Trametinib, RMC4550 or AMG510, FIG. 5A",Abrogates Cell Proliferations
same,synergistic effect of combination (confluence and Caspase 3/7 activity),"Lung Cancer Cells [5]; compound (A) with MEK, SHP2 and KRASG12C inhibitors, example 5, FIGS. 5A and 5B",synergistic effect
